Results published in ChEMBL document CHEMBL4725218, “Deep Learning Enhancing Kinome-Wide Polypharmacology Profiling: Model Construction and Experiment Validation” (J Med Chem, 2020).

Experiments:
[1] = molecular target: T1, Homeodomain-interacting protein kinase 4 (Homo sapiens) (UniProt Q8NE63); assay: Inhibition of human HIPK4 assessed as remaining enzyme activity at 1 uM
T1 sequence (whole entry): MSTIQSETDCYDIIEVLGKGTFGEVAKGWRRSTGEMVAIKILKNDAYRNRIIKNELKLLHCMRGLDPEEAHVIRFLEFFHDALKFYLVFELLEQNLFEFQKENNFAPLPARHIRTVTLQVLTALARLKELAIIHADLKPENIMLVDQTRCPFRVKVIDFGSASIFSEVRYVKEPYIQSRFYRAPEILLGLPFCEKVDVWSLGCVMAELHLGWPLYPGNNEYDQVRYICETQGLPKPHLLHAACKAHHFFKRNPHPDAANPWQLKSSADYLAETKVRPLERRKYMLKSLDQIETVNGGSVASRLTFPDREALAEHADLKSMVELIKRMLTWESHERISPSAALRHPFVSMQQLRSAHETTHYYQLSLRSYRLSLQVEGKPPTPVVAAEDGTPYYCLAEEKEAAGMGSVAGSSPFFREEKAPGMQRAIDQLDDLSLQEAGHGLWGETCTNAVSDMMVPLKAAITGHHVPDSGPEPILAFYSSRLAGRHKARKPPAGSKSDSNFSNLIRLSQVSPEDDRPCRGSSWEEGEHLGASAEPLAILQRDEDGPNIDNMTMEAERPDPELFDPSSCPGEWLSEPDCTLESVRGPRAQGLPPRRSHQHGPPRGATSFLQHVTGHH

[2] = molecular target: Tyrosine-protein kinase Blk (Mus musculus) (UniProt P16277); assay: Inhibition of mouse BLK assessed as remaining enzyme activity at 0.01 uM
Sequence of Tyrosine-protein kinase Blk (Mus musculus) (P16277 whole entry): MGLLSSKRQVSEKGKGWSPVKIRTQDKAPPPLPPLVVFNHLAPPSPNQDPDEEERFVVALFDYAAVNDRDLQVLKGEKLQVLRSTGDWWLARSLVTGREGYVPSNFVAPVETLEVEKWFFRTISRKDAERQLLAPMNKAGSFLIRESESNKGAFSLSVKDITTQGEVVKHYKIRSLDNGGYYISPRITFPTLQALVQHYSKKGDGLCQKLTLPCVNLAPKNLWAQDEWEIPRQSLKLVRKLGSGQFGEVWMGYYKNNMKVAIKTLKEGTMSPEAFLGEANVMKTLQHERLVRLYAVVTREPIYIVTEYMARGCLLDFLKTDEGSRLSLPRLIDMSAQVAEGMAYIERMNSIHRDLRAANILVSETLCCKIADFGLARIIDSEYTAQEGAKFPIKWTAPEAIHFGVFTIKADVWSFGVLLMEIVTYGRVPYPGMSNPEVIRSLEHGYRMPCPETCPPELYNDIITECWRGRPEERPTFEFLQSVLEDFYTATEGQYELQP

[3] = molecular target: Tyrosine-protein kinase ABL2 (Mus musculus) (UniProt Q4JIM5); assay: Inhibition of mouse ARG assessed as remaining enzyme activity at 1 uM
[4] = molecular target: NT-3 growth factor receptor (Homo sapiens) (UniProt Q16288); assay: Inhibition of human TRKC assessed as remaining enzyme activity at 0.1 uM
Sequence of NT-3 growth factor receptor (Homo sapiens) (Q16288 32-839 limits assumed): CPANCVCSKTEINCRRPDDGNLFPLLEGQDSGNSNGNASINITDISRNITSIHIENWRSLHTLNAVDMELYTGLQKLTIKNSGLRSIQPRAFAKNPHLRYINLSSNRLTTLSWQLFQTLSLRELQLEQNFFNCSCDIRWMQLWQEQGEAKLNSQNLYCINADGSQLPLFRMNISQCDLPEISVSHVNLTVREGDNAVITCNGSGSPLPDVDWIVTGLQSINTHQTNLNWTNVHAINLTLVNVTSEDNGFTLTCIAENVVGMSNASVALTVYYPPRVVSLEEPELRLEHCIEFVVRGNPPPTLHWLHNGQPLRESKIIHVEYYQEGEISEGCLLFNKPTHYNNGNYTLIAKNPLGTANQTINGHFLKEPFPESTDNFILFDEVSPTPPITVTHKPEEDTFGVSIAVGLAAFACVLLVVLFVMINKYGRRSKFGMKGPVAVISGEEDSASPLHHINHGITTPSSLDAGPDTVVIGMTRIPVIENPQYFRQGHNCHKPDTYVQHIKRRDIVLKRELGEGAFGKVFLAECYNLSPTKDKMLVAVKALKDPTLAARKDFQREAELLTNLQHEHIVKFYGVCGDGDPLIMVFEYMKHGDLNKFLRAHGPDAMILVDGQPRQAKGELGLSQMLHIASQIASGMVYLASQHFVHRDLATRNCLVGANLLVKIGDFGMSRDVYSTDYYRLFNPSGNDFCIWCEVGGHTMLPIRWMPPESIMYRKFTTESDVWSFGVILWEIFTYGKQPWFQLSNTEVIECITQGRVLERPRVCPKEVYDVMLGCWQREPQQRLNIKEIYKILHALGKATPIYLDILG

[5] = molecular target: Macrophage colony-stimulating factor 1 receptor (Homo sapiens) (UniProt P07333); assay: Inhibition of human FMS assessed as remaining enzyme activity at 0.1 uM
[6] = molecular target: Tyrosine-protein kinase Lyn (Homo sapiens) (UniProt P07948); assay: Inhibition of human LYN assessed as remaining enzyme activity at 0.1 uM
[7] = molecular target: Ephrin type-A receptor 2 (Homo sapiens) (UniProt P29317); assay: Inhibition of human EphA2 assessed as remaining enzyme activity at 0.1 uM
Sequence of Ephrin type-A receptor 2 (Homo sapiens) (P29317 whole entry): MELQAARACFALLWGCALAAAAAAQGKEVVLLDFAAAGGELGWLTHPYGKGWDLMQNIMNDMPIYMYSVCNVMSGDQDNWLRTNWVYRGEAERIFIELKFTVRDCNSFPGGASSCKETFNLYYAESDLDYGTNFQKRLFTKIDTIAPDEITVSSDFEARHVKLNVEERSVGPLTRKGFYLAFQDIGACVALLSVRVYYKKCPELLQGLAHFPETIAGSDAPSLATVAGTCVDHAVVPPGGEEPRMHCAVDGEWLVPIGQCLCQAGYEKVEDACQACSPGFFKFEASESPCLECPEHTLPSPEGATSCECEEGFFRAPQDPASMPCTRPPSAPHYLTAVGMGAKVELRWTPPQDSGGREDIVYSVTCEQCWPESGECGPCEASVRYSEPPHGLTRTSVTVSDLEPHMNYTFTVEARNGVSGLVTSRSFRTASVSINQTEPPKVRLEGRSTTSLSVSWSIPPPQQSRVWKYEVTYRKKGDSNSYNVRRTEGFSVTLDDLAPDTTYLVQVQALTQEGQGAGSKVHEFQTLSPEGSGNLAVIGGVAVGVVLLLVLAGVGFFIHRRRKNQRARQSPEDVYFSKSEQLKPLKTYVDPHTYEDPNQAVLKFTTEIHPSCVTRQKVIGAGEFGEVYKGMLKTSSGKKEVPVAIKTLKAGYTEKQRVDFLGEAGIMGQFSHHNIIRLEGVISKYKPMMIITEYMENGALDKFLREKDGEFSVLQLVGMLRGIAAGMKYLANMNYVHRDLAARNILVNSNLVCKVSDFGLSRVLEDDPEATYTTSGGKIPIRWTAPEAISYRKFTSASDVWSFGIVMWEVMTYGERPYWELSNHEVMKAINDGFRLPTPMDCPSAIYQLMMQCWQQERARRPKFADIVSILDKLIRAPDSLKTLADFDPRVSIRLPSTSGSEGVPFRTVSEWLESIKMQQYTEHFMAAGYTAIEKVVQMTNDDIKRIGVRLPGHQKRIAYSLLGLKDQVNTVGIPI

[8] = molecular target: Serine/threonine-protein kinase TAO1 (Homo sapiens) (UniProt Q7L7X3); assay: Inhibition of human TAO1 assessed as remaining enzyme activity at 1 uM
[9] = molecular target: Homeodomain-interacting protein kinase 3 (Homo sapiens) (UniProt Q9H422); assay: Inhibition of human HIPK3 assessed as remaining enzyme activity at 0.1 uM
[10] = molecular target: Homeodomain-interacting protein kinase 3 (Homo sapiens) (UniProt Q9H422); assay: Inhibition of human HIPK3 assessed as remaining enzyme activity at 0.01 uM
[11] = molecular target: Serine/threonine-protein kinase B-raf (Homo sapiens) (UniProt P15056); assay: Inhibition of human B-Raf assessed as remaining enzyme activity at 0.01 uM
Sequence of Serine/threonine-protein kinase B-raf (Homo sapiens) (P15056 whole entry): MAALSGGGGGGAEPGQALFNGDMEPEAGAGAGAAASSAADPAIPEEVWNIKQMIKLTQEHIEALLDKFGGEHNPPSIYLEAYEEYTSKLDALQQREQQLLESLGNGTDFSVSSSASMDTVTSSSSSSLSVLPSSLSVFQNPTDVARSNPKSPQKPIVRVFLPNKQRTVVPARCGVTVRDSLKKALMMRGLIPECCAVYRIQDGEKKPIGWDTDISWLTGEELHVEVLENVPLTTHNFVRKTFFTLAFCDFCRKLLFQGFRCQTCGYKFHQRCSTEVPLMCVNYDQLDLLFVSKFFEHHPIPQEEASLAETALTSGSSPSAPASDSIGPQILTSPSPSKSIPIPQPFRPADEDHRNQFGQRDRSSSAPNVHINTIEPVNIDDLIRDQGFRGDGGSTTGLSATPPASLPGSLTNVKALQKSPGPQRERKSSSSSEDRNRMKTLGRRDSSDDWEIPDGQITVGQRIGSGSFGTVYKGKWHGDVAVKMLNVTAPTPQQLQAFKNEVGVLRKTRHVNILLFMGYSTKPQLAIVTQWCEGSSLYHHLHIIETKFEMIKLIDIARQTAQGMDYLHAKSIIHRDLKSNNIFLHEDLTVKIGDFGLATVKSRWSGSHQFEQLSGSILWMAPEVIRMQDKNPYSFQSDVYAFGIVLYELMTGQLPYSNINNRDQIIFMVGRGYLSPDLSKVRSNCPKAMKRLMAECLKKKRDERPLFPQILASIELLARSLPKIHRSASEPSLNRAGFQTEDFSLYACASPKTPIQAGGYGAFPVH

[12] = molecular target: Tyrosine-protein kinase Blk (Mus musculus) (UniProt P16277); assay: Inhibition of mouse BLK assessed as remaining enzyme activity at 1 uM
[13] = molecular target: Vascular endothelial growth factor receptor 3 (Homo sapiens) (UniProt P35916); assay: Inhibition of human VEGFR3 assessed as remaining enzyme activity at 0.1 uM
[14] = molecular target: T1, Homeodomain-interacting protein kinase 4 (Homo sapiens); assay: Inhibition of human HIPK4 assessed as remaining enzyme activity at 0.01 uM
[15] = molecular target: T2, Muscle, skeletal receptor tyrosine-protein kinase (Homo sapiens) (UniProt O15146); assay: Inhibition of human MuSK assessed as remaining enzyme activity at 0.01 uM
T2 sequence (whole entry): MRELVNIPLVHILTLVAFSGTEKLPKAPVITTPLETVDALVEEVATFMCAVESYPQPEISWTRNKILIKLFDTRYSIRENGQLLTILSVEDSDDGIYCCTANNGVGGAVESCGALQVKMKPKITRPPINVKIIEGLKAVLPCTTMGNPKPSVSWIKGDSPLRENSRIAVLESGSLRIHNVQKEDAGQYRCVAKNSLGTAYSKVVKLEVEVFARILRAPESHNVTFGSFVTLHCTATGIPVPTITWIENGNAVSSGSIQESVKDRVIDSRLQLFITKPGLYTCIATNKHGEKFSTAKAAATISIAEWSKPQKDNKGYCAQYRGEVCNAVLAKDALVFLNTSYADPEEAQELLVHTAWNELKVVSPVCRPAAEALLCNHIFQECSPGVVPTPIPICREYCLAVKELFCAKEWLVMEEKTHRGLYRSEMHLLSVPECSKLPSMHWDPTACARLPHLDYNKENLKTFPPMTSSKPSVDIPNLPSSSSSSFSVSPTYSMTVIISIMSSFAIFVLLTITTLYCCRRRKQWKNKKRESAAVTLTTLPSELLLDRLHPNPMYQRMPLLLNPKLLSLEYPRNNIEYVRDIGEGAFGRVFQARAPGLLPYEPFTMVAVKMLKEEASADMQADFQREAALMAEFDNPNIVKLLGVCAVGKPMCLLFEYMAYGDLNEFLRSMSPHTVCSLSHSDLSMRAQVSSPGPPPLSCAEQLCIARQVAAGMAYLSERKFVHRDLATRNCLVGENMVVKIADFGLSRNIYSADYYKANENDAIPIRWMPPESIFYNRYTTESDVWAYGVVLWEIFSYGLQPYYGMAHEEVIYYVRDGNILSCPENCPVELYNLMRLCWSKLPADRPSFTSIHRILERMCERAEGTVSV

[16] = molecular target: Vascular endothelial growth factor receptor 2 (Homo sapiens) (UniProt P35968); assay: Inhibition of human VEGFR2 assessed as remaining enzyme activity at 1 uM
Sequence of Vascular endothelial growth factor receptor 2 (Homo sapiens) (P35968 whole entry): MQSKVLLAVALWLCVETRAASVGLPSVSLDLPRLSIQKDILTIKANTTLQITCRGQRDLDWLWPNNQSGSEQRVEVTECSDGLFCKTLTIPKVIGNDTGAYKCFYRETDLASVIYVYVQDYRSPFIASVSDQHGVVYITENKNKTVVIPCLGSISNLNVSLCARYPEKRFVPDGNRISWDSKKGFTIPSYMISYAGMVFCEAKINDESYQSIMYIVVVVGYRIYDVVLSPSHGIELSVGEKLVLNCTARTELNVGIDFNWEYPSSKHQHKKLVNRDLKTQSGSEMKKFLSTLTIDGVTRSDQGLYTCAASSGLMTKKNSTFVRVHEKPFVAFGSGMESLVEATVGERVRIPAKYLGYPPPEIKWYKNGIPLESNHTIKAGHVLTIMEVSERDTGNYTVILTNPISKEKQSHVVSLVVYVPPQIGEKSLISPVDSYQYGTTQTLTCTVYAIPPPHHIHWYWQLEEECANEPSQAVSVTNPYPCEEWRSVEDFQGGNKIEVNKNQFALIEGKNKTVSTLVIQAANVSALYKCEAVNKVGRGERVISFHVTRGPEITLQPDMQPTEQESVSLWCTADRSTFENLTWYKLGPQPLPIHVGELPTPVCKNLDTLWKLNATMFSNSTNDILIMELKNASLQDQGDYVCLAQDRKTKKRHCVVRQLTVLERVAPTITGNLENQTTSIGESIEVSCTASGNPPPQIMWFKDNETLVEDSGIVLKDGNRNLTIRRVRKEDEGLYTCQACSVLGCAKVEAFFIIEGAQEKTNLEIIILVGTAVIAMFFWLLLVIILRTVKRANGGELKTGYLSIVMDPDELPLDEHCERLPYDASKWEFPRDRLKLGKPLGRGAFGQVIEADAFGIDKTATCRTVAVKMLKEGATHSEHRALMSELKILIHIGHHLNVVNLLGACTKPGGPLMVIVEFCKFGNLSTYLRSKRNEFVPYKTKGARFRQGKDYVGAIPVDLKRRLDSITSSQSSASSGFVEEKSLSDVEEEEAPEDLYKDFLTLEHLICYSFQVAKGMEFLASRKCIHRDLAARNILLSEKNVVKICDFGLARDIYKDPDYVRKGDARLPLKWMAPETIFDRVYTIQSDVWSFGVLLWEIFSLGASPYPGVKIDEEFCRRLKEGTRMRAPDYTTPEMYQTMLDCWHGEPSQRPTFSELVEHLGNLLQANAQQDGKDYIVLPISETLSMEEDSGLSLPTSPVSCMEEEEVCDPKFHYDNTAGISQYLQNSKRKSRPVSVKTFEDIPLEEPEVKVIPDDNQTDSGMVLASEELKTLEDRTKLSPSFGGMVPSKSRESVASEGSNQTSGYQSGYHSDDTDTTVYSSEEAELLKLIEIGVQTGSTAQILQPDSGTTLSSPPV

[17] = molecular target: Homeodomain-interacting protein kinase 2 (Homo sapiens) (UniProt Q9H2X6); assay: Inhibition of human HIPK2 assessed as remaining enzyme activity at 1 uM
[18] = molecular target: Epithelial discoidin domain-containing receptor 1 (Homo sapiens) (UniProt Q08345); assay: Inhibition of human DDR1 assessed as remaining enzyme activity at 0.01 uM
[19] = molecular target: RAF proto-oncogene serine/threonine-protein kinase (Homo sapiens) (UniProt P04049); assay: Inhibition of human RAF1 assessed as remaining enzyme activity at 0.01 uM
Sequence of RAF proto-oncogene serine/threonine-protein kinase (Homo sapiens) (P04049 whole entry): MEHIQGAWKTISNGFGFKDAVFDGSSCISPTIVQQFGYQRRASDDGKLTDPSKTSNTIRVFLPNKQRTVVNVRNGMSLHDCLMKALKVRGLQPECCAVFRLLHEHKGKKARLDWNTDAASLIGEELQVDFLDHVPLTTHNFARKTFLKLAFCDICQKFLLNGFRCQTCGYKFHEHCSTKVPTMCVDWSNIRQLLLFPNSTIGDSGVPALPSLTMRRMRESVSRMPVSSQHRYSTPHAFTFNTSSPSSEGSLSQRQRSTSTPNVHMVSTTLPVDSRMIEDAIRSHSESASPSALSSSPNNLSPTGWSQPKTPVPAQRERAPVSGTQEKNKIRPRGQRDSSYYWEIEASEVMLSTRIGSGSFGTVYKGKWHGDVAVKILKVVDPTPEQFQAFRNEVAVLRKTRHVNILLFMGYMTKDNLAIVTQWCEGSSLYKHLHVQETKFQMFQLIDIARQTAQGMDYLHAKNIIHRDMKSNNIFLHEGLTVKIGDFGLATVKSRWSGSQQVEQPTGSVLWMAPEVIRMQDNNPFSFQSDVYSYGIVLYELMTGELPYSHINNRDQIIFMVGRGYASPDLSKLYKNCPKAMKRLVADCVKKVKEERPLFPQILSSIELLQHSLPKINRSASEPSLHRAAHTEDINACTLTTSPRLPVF

[20] = molecular target: Vascular endothelial growth factor receptor 2 (Homo sapiens) (UniProt P35968); assay: Inhibition of human VEGFR2 assessed as remaining enzyme activity at 0.01 uM
[21] = molecular target: T2, Muscle, skeletal receptor tyrosine-protein kinase (Homo sapiens); assay: Inhibition of human MuSK assessed as remaining enzyme activity at 0.1 uM
[22] = molecular target: Serine/threonine-protein kinase B-raf (Homo sapiens) (UniProt P15056); assay: Inhibition of human B-Raf assessed as remaining enzyme activity at 0.1 uM
[23] = molecular target: RAF proto-oncogene serine/threonine-protein kinase (Homo sapiens) (UniProt P04049); assay: Inhibition of human RAF1 assessed as remaining enzyme activity at 1 uM
[24] = molecular target: Ephrin type-A receptor 2 (Homo sapiens) (UniProt P29317); assay: Inhibition of human EphA2 assessed as remaining enzyme activity at 1 uM
[25] = molecular target: Tyrosine-protein kinase Blk (Mus musculus) (UniProt P16277); assay: Inhibition of mouse BLK assessed as remaining enzyme activity at 0.1 uM
[26] = molecular target: Mitogen-activated protein kinase 14 (Homo sapiens) (UniProt Q16539); assay: Inhibition of human p38alpha assessed as remaining enzyme activity at 0.1 uM

CNC(=O)c1cc(Oc2ccc(NC(=O)Nc3ccc(Cl)c(C(F)(F)F)c3)c(F)c2)ccn1
Activity [1]: -1%
Activity [2]: 52%
Activity [3]: 9%
Activity [4]: 17%
Activity [5]: 36%
Activity [6]: 21%
Activity [7]: 58%
Activity [8]: 42%
Activity [9]: 68%
Activity [10]: 103%
Activity [11]: 101%
Activity [12]: 1%
Activity [13]: 1%
Activity [14]: 31%
Activity [15]: 89%
Activity [16]: 17%
Activity [17]: 13%
Activity [18]: 92%
Activity [19]: 93%
Activity [20]: 68%
Activity [21]: 92%
Activity [22]: 66%
Activity [23]: 8%
Activity [24]: 5%
Activity [25]: 45%
Activity [26]: 52%
